This is an account of results in US5208244A, “Method of selectively inhibiting calcium-independent myocardial phospholipase A2” (priority 1990, dated 1993).

The IC50 is the concentration needed to halve the response being measured.

Counter-ions that a name gives are not always drawn. Like-named read-outs stand apart in the source and are kept apart here. Some results are limits rather than exact numbers.

In assay [1] the target is T1, human synovial fluid PLA2 (Homo sapiens, UniProt P14555).
T1 construct: Purified human synovial fluid PLA2; from tissue; host or cells: human synovial fluid; obtained from R. C; Franson (Medical College of Virginia)
T1 sequence (P14555 21-144): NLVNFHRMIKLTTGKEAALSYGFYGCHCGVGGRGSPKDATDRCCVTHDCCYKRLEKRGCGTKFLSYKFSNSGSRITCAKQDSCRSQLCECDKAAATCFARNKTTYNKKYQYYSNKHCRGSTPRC
The assay can be described thus: Human synovial fluid PLA2 assay ([14C]-oleate labelled E. coli). Format: biochemical. The settings on record: 5 mM CaCl2, pH 7.0; > : inhibition but not enough for an IC50; >> : little or no inhibition at highest concentration; read-out: HSF PLA2 IC50. From the text: (§1) Several other PLA2 assays were utilized in order to gain some measure of the selectivity of the inhibitors of calcium-independent myocardial PLA2. Specifically, three other calcium-dependent mammalian PLA2 assays are used: (1) sheep platelet PLA2, (2) human synovial fluid PLA2, and (3) porcine pancreatic PLA2. The PLA2 enzymes represent different groups of PLA2 enzymes. Myocardial PLA2, platelet PLA2, and secreted PLA2 enzymes (human synovial fluid PLA2 and porcine pancreatic PLA2) have very different calcium requirements, which may be typical of their respective classes.
Purified human synovial fluid PLA2 (purified by the procedure of Fawzy, A. A. and Franson, R. C. Biophys. J. 49, 533a [1986]) was obtained from R. C. Franson (Medical College of Virginia, Richmond, Va.). PLA2 activity was measured by using [^14 C]-oleate labelled autoclaved E. coli as substrate as described by Franson, R. C., Patriarca, P., and Elsbach, P. J. Lipid Res. 15, 380-388 (1974). The assay was performed at 37° C. for 30 min in a final volume of 100 μL 50 mM Hepes buffer (pH 7.0) containing 150 mM NaCl, 5 mM CaCl2, and E. coli cells (corresponding to 10 nmol phospholipid). The test compound or control vehicle was preincubated with PLA2 for 5 min, followed by adding E. coli to initiate the reaction. The reaction was terminated by adding 2 mL tetrahydrofuran. The reaction product, [^14 C]-oleic acid, was isolated using a 1 mL Bond Elute--NH2 column and counted by liquid scintillation spectrometry.
(§2) Two greater than symbols (>>) indicate little or no inhibition at the highest concentration used. Activation of an enzyme is indicated by a +X% which gave that activation of X%.

Another assay concerns the target T2, porcine pancreatic PLA2 (Sus scrofa, UniProt P00592).
T2 construct: purchased Sigma (St. Louis); host or cells: porcine pancreas
Nature of the assay: Porcine pancreatic PLA2 assay ([14C]-oleate labelled E. coli). Type of assay: biochemical. Particulars: 10 mM CaCl2, pH 8.0; > : inhibition but not enough for an IC50; >> : little or no inhibition at highest concentration; read-out: Porcine Pancr. PLA2 IC50.
Description: as §1
Purified porcine pancreatic PLA2 was obtained from Sigma (St. Louis, Miss.). PLA2 activity was measured by using [^14 C]-oleate labelled autoclaved E. coli as described by Franson, Patriarca and Elsbach (referenced above). The assay was performed at 37° C. for 5 min in a final volume of 100 μL Tris-HCl buffer (100
mM, pH 8.0) containing 1 mM EDTA, 10 mM CaCl2, and E. coli (containing 10 nmol phospholipid). The test compound or control vehicle was preincubated with PLA2 for 5 min, followed by adding E. coli to initiate the reaction. The reaction was terminated by adding 2 mL tetrahydrofuran. The reaction product, [^14 C]-oleic acid, was isolated using a 1 mL Bond Elute--NH2 column and counted by liquid scintillation spectrometry.
as §2

Assay [2] relates to calcium-independent canine myocardial PLA2. Nature of the assay: Inhibition of purified calcium-independent canine myocardial PLA2 (radiolabeled fatty acid release). Type of assay: biochemical. Particulars: for IC50: purified enzyme, 6.4 mM EGTA, pH 7.0, 5 min preincubation 25° C., 5 min at 37° C., read-out: Canine Heart PLA2 IC50; for selectivity for calcium-independent canine myocardial PLA2 over the calcium-dependent PLA2 enzymes: versus calcium-dependent PLA2 enzymes. How it is done:
This assay consists of determining the amount of radiolabeled fatty acid which is liberated from the radiolabeled phospholipid substrate by purified calcium-independent canine myocardial PLA2 in the presence of varying concentrations of the inhibitor. […] This concentration is defined as the IC50.
Appropriate controls were performed in the absence of test compound. Catalysis was initiated by injection of 1 μM radiolabeled substrate (1-O-(Z)-(1'-hexadecenyl)-2-[9,10-^3 H]-oleoyl-3-phosphorylcholine). After a 5 min incubation at 37° C., reaction products were extracted with n-butanol, separated by thin layer chromatography, and quantified by scintillation spectrometry.
as §2

Another assay relates to HL-60 cells. Nature of the assay: HL-60 cell assay for LTB4 and PGE2 production (calcium ionophore A23187 induced). Format: cell-based. The settings on record: for IC50: Homo sapiens, HL-60, A23187 5×10^-6 M, > : inhibition but not enough for an IC50. The procedure:
An additional whole cell assay was also performed. In this assay, HL-60 cells are induced with the calcium ionophore A23187 in the presence of varying amounts of inhibitor, and the amounts of the prostaglandin E2 (PGE2) and leukotriene B4 (LTB4) which form are measured. Calcium ionophore A23187 activates a calcium-dependent PLA2 which leads to the enhanced production of the arachidonic acid metabolites PGE2 and LTB4. The concentrations of inhibitor which decrease the production of PGE2 and LTB4 by 50% relative to controls are expressed as IC50 values.
HL-60 Cell Assay for LTB4 and PGE2 Production
HL-60 cells grown exponentially in culture were induced to differentiate into granulocytes by a four day incubation with 0.8% (v/v) N,N-dimethylformamide. Prior to assay, differentiated HL-60 cells were washed once with Hanks' balanced salt solution containing 0.35 mg/mL sodium bicarbonate and 10 mM Hepes, pH 7.3 (HBSS) and resuspended in HBSS at a 3×10^6 cells/mL concentration. DMSO or test compounds solubilized in DMSO were added at 1:100 dilution to 1.0 mL HL-60 cell suspensions (3×10^6 cells) and preincubated at 37° C. for 10 min in a shaking water bath. After an additional 5 min incubation with 5×10^-6 M calcium ionophore, A23187 (Calbiochem, La Jolla, Calif.), the cells were centrifuged at 12,800×g for 15 seconds and the supernatant (0.8 mL) removed and stored at -20° C. for LTB4 and PGE2 quantitation by radioimmunoassay (kits obtained from Amersham, United Kingdom and NEN Research Products, N. Billerica, Mass.).
as §2

The next assay has as its system sheep platelet PLA2. The assay can be described thus: Calcium-dependent sheep platelet PLA2 assay. Format: biochemical. Particulars: 1 μM CaCl2, pH 7.2; > : inhibition observed but not enough for an IC50 at highest concentration.
Description: as §1
Homogeneous sheep platelet cytosolic PLA2 was prepared as described by Loeb, L. A., and Gross, R. W. J. Biol. Chem. 261, 10467-10470 (1986). The purified calcium-dependent platelet PLA2 was preincubated in 70 mM Tris-Cl (pH 7.2) containing 1 μM CaCl2 and test compound for 5 min at 25° C. Catalysis was initiated by injection 1 μM radiolabeled substrate (1-O-(Z)-(1'-hexadecenyl)-2-[9,10-^3 H]-oleoyl-3-phosphorylcholine). After a 10 min incubation period at 37° C., reaction products were extracted with n-butanol, separated by thin layer chromatography, and quantified by scintillation spectrometry. PLA2 activity was compared in the presence and absence of test compound and the IC50 was determined.
as §2

The next assay concerns rat neonatal myocytes. Particulars: cited from earlier work.
[3] abbreviates: LTB4 production, read-out: HL-60 LTB4 IC50.
The mark [4] stands for this setting: PGE2 production, >> : little or no inhibition at highest concentration, read-out: HL-60 PGE2 IC50.

T2 sequence (P00592 23-146): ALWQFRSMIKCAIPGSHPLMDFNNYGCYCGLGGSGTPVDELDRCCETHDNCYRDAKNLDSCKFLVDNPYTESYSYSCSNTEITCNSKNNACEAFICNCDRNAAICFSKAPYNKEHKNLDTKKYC

As to `O=C1O/C(=C/I)CCC1c1cccc2ccccc12` (centres unmarked) [Example 1, Tetrahydro-(E)-6-(iodomethylene)-3-(1-naphthalenyl)-2H-pyran-2-one], the half-maximal inhibitory concentration (IC50) is over 100 µM in assay [1]; over 100 µM on porcine pancreatic PLA2; 0.031 µM in assay [2]; 11.7 µM in the assay on HL-60 cells (setting [3]); over 100 µM with HL-60 cells (setting [4]); 100 µM with sheep platelet PLA2. In assay [2], the “potency against canine myocardial PLA2 (in words)” value (shortened to “potency”) is given as “most potent compound known against calcium-independent canine myocardial PLA2”. For the same compound, the “selectivity for calcium-independent canine myocardial PLA2 over the calcium-dependent PLA2 enzymes” value in assay [2] was “over 3200 -fold”. For the same compound, the “HL-60 PGE2 activation (+X%)” value with HL-60 cells (PGE2 production) is “+300%”.

Take `C#C/C=C1\CCC(c2cccc3ccccc23)C(=O)O1` (centres unmarked) [Example 2, Tetrahydro-3-(1-Naphthalenyl)-(E)-6-(prop-2-ynylidene)-2H-pyran-2-one]: the IC50 in assay [1] is 53 µM; at porcine pancreatic PLA2, 17 µM; with HL-60 cells (setting [3]) it was over 10 µM; in the assay on HL-60 cells (setting [4]), over 10 µM; in the assay on sheep platelet PLA2, 38 µM.

As to `O=C1O/C(=C/Br)CCC1c1cccc2ccccc12` (centres unmarked) [Example 3, (E)-6-(bromomethylene)tetrahydro-3-(1-naphthalenyl)-2H-pyran-2-one], the IC50 in assay [1] is over 100 µM; on porcine pancreatic PLA2 it was over 100 µM; in assay [2] it was 0.14 µM; in the assay on HL-60 cells (setting [3]), over 10 µM; in the assay with HL-60 cells (setting [4]), over 10 µM; in the assay with sheep platelet PLA2, 72 µM. Further, in assay [2], the “potency” value was “extremely potent inhibitors of canine myocardial PLA2”. Further, the “selectivity for calcium-independent canine myocardial PLA2 over the calcium-dependent PLA2 enzymes” value in assay [2] was “over 500 -fold”. For the same compound, the “HL-60 PGE2 activation (+X%)” value with HL-60 cells (PGE2 production) is “+91%”.

Turning to `O=C1O/C(=C\I)CCC1c1cccc2ccccc12` (centres unmarked) [Example 4, Tetrahydro-(Z)-6-(iodomethylene)-3-(1-naphthalenyl)-2H-pyran-2-one], in assay [2], the “potency” value was “potency drops off by almost an order of magnitude” and the IC50 is 0.19 µM.

As to `O=C1O/C(=C/Br)CCC1c1ccccc1` (centres unmarked) [Example 5, (E)-6-(Bromomethylene)tetrahydro-3-phenyl-2H-pyran-2-one], the IC50 in assay [1] was over 100 µM; on porcine pancreatic PLA2, over 100 µM; in assay [2] it was 0.25 µM; in the assay on HL-60 cells (setting [3]), 1.1 µM; with HL-60 cells (setting [4]), over 100 µM; with sheep platelet PLA2 it was over 100 µM. Moreover, the “selectivity for calcium-independent canine myocardial PLA2 over the calcium-dependent PLA2 enzymes” value in assay [2] is on record as “over 400 -fold”. In addition, the “HL-60 PGE2 activation (+X%)” value with HL-60 cells (PGE2 production) was “+63%”.

`O=C1O/C(=C/Br)CC1c1cccc2ccccc12` (centres unmarked) [Example 6, (E)-5-(Bromomethylene)tetrahydro-3-(1-naphthalenyl)-2(3H)-furanone]: the IC50 in assay [2] was found to be 1.7 µM.

As for `C=C1CCC(c2cccc3ccccc23)C(=O)O1` (centres unmarked) [Example 7, Tetrahydro-6-methylene-3-(1-naphthalenyl)-2H-pyran-2-one], in assay [2], the “potency” value was “loss of more than two orders of magnitude in potency” and the IC50 is 22 µM.

In the case of `O=C1O/C(=C/Br)CCC1Oc1ccccc1` (centres unmarked) [Example 8, (E)-6-(Bromomethylene)tetrahydro-3-phenoxy-2H-pyran-2-one], the IC50 in assay [2] worked out at 21 µM.

Consider `O=C1CCC/C(=C\Br)O1` [Example 9, (E)-6-(Bromomethylene)tetrahydro-2H-pyran-2-one], for which the “Canine Heart PLA2 inhibition at 100 μM” value in assay [2] (100 μM, printed in the IC50 column with footnote 4) amounted to 28%.

For `O=C1O/C(=C/Br)CCC1c1cccnc1` (centres unmarked) [Example 10, (E)-6-(Bromomethylene)tetrahydro-3-(3-pyridyl)-2H-pyran-2-one Hydrochloride], the IC50 in assay [2] was found to be 75 µM.

In the case of `COC1=CCC2=C(CCC3C2CC[C@@]2(C)C3CC[C@@H]2N(C)CCCN(C)C)C1` (some centres unmarked) [U26,384], the “release of arachidonic acid, phospholipid degradation, sarcolemmal membrane defects and release of creatine kinase” value with rat neonatal myocytes (induced by iodoacetate) was “prevented the release of arachidonic acid, phospholipid degradation, sarcolemmal membrane defects and the release of creatine kinase”.

As to `O=C(O)CI` [iodoacetate], in the assay with rat neonatal myocytes (rat neonatal myocytes), the “ATP levels, release of arachidonic acid and morphological alterations of myocytes” value is “lowers the levels of ATP which results in the release of arachidonic acid and morphological alterations of the myocytes”.
